According to patent US8313729B2, “Integrated photoactive small molecules and uses thereof” (Medibeacon, LLC, priority 2007, dated 2012):

Tests used:
UV/vis absorption in PBS = type: physicochemical; settings: 100 μM in PBS
[1] = Fluorescence excitation and emission; type: physicochemical

UV/vis λabs (UV/vis absorption in PBS)	Fluorescence λem ([1]; concentration not given)	Fluorescence λex ([1]; concentration not given)	Fluorescence λem ([1]; 100 nM)	Fluorescence λex ([1]; 100 nM)	SMILES
434 nm	559 nm	449 nm			Nc1nc(C(=O)NCC(O)CO)c(N)nc1C(=O)NCC(O)CO (stereo not drawn) [Example 3, 3,6-diamino-N^2,N^5-bis(2,3-dihydroxypropyl)pyrazine-2,5-dicarboxamide]
437 nm			554 nm	428 nm	N=C(N)c1ccc(CNC(=O)c2nc(N)c(C(=O)NCc3ccc(C(=N)N)cc3)nc2N)cc1 [Example 1, 3,6-diamino-N2,N5-bis(4-carbamimidoylbenzyl)pyrazine-2,5-dicarboxamide]
432 nm	558 nm	432 nm			Nc1nc(C(=O)N[C@@H](CO)C(=O)O)c(N)nc1C(=O)N[C@@H](CO)C(=O)O [Example 4, 3,6-Diamino-N^2,N^5-bis(serine)-pyrazine-2,5-dicarboxamide]
